Experimental data from patent US12435044B2, “Pyridazinone herbicides and pyridazinone intermediates used to prepare a herbicide” (FMC Corporation, priority 2018, dated 2025).

Columns and labels:
Format in all cases: in vivo
[1] = system: barnyardgrass (Echinochloa crus-galli); test: Test C pre-/postemergence greenhouse test; settings: scale 0 to 100
Procedure, shortened: (§1)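 Formulation: non-phytotoxic solvent mixture including surfactant. Preemergence on seeds in silt loam; postemergence on plants 2 to 18 cm tall in peat-based potting medium. Controls held alongside; visual evaluation at 13 to 21 d, 0 = no effect, 100 = complete control.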

[2] = system: blackgrass (Alopecurus myosuroides); test: Test C pre-/postemergence greenhouse test; settings: scale 0 to 100
Procedure, shortened: as §1

[3] = system: morningglory (Ipomoea coccinea); test: Test C pre-/postemergence greenhouse test; settings: scale 0 to 100
Procedure, shortened: as §1

oat, wild (Avena fatua) = test: Test C pre-/postemergence greenhouse test; settings: Postemergence, scale 0 to 100
Procedure, shortened: as §1

[4] = system: oilseed rape (Brassica napus); test: Test C pre-/postemergence greenhouse test; settings: scale 0 to 100
Procedure, shortened: as §1

[5] = system: ragweed (common ragweed, Ambrosia elatior); test: Test C pre-/postemergence greenhouse test; settings: scale 0 to 100
Procedure, shortened: as §1

[6] = system: velvetleaf (Abutilon theophrasti); test: Test C pre-/postemergence greenhouse test; settings: scale 0 to 100
Procedure, shortened: as §1

[7] = system: waterhemp (common waterhemp, Amaranthus rudis); test: Test C pre-/postemergence greenhouse test; settings: scale 0 to 100
Procedure, shortened: as §1

[8] = system: wheat, winter (winter wheat, Triticum aestivum); test: Test C pre-/postemergence greenhouse test; settings: scale 0 to 100
Procedure, shortened: as §1

[9] = system: barnyardgrass (Echinochloa crus-galli); test: Test C flooded paddy test; settings: Flood, scale 0 to 100
Text: (§2) Plant species in the flooded paddy test consisted of rice (transplanted and water seeded, Oryza sativa), sedge, umbrella (small-flower umbrella sedge, Cyperus difformis), ducksalad (Heteranthera limosa), Bulrush, Japanese (Scirpus juncoides) and barnyardgrass (Echinochloa crus-galli) grown to the 2-leaf stage for testing. At time of treatment, test pots were flooded to 3 cm above the soil surface, treated by application of test compounds directly to the paddy water, and then maintained at that water depth for the duration of the test. Treated plants and controls were maintained in a greenhouse for 13 to 15 d, after which time all species were compared to controls and visually evaluated. Plant response ratings, summarized in Table C are based on a scale of 0 to 100 where 0 is no effect and 100 is complete control. A dash (-) response means no test result.

[10] = system: ducksalad (Heteranthera limosa); test: Test C flooded paddy test; settings: Flood, scale 0 to 100
Text: as §2

[11] = system: rice (transplanted and water seeded, Oryza sativa); test: Test C flooded paddy test; settings: Flood, scale 0 to 100
Text: as §2

[12] = system: sedge, umbrella (small-flower umbrella sedge, Cyperus difformis); test: Test C flooded paddy test; settings: Flood, scale 0 to 100
Text: as §2

Cc1ccc2ccc(C)c(-c3c(O)c(Cl)nn(C)c3=O)c2c1 [Cpd. No. 20, 6-chloro-4-(2,7-dimethyl-1-naphthalenyl)-5-hydroxy-2-methyl-3(2H)-pyridazinone]
Plant response rating, Barnyardgrass ([1]; Postemergence, 16 g ai/ha): 55 | Plant response rating, Barnyardgrass ([1]; Postemergence, 31 g ai/ha): 75 | Plant response rating, Barnyardgrass ([1]; Postemergence, 62 g ai/ha): 75 | Plant response rating, Barnyardgrass ([1]; Postemergence, 125 g ai/ha): 85 | Plant response rating, Barnyardgrass ([1]; Preemergence, 31 g ai/ha): 85 | Plant response rating, Barnyardgrass ([1]; Preemergence, 61 g ai/ha): 70 | Plant response rating, Barnyardgrass ([1]; Preemergence, 62 g ai/ha): 95 | Plant response rating, Barnyardgrass ([1]; Preemergence, 125 g ai/ha): 100 | Plant response rating, Blackgrass ([2]; Postemergence, 16 g ai/ha): 20 | Plant response rating, Blackgrass ([2]; Postemergence, 31 g ai/ha): 30 | Plant response rating, Blackgrass ([2]; Postemergence, 62 g ai/ha): 40 | Plant response rating, Blackgrass ([2]; Postemergence, 125 g ai/ha): 45 | Plant response rating, Blackgrass ([2]; Preemergence, 31 g ai/ha): 85 | Plant response rating, Blackgrass ([2]; Preemergence, 61 g ai/ha): 20 | Plant response rating, Blackgrass ([2]; Preemergence, 62 g ai/ha): 85 | Plant response rating, Blackgrass ([2]; Preemergence, 125 g ai/ha): 90 | Plant response rating, Morningglory ([3]; Postemergence, 16 g ai/ha): 100 | Plant response rating, Morningglory ([3]; Postemergence, 31 g ai/ha): 100 | Plant response rating, Morningglory ([3]; Postemergence, 62 g ai/ha): 100 | Plant response rating, Morningglory ([3]; Postemergence, 125 g ai/ha): 100 | Plant response rating, Morningglory ([3]; Preemergence, 31 g ai/ha): 85 | Plant response rating, Morningglory ([3]; Preemergence, 61 g ai/ha): 70 | Plant response rating, Morningglory ([3]; Preemergence, 62 g ai/ha): 95 | Plant response rating, Morningglory ([3]; Preemergence, 125 g ai/ha): 95 | Plant response rating, Oat, Wild (oat, wild (Avena fatua); 16 g ai/ha): 35 | Plant response rating, Oat, Wild (oat, wild (Avena fatua); 31 g ai/ha): 55 | Plant response rating, Oat, Wild (oat, wild (Avena fatua); 62 g ai/ha): 70 | Plant response rating, Oat, Wild (oat, wild (Avena fatua); 125 g ai/ha): 90 | Plant response rating, Oilseed Rape ([4]; Postemergence, 16 g ai/ha): 0 | Plant response rating, Oilseed Rape ([4]; Postemergence, 31 g ai/ha): 0 | Plant response rating, Oilseed Rape ([4]; Postemergence, 62 g ai/ha): 0 | Plant response rating, Oilseed Rape ([4]; Postemergence, 125 g ai/ha): 0 | Plant response rating, Oilseed Rape ([4]; Preemergence, 31 g ai/ha): 0 | Plant response rating, Oilseed Rape ([4]; Preemergence, 61 g ai/ha): 0 | Plant response rating, Oilseed Rape ([4]; Preemergence, 62 g ai/ha): 0 | Plant response rating, Oilseed Rape ([4]; Preemergence, 125 g ai/ha): 0 | Plant response rating, Ragweed ([5]; Postemergence, 16 g ai/ha): 85 | Plant response rating, Ragweed ([5]; Postemergence, 31 g ai/ha): 90 | Plant response rating, Ragweed ([5]; Postemergence, 62 g ai/ha): 95 | Plant response rating, Ragweed ([5]; Postemergence, 125 g ai/ha): 98 | Plant response rating, Ragweed ([5]; Preemergence, 31 g ai/ha): 100 | Plant response rating, Ragweed ([5]; Preemergence, 61 g ai/ha): 65 | Plant response rating, Ragweed ([5]; Preemergence, 62 g ai/ha): 100 | Plant response rating, Ragweed ([5]; Preemergence, 125 g ai/ha): 100 | Plant response rating, Velvetleaf ([6]; Postemergence, 16 g ai/ha): 70 | Plant response rating, Velvetleaf ([6]; Postemergence, 31 g ai/ha): 75 | Plant response rating, Velvetleaf ([6]; Postemergence, 62 g ai/ha): 85 | Plant response rating, Velvetleaf ([6]; Postemergence, 125 g ai/ha): 90 | Plant response rating, Velvetleaf ([6]; Preemergence, 31 g ai/ha): 100 | Plant response rating, Velvetleaf ([6]; Preemergence, 61 g ai/ha): 85 | Plant response rating, Velvetleaf ([6]; Preemergence, 62 g ai/ha): 100 | Plant response rating, Velvetleaf ([6]; Preemergence, 125 g ai/ha): 100 | Plant response rating, Waterhemp ([7]; Postemergence, 16 g ai/ha): 75 | Plant response rating, Waterhemp ([7]; Postemergence, 31 g ai/ha): 70 | Plant response rating, Waterhemp ([7]; Postemergence, 62 g ai/ha): 95 | Plant response rating, Waterhemp ([7]; Postemergence, 125 g ai/ha): 95 | Plant response rating, Waterhemp ([7]; Preemergence, 31 g ai/ha): 100 | Plant response rating, Waterhemp ([7]; Preemergence, 61 g ai/ha): 65 | Plant response rating, Waterhemp ([7]; Preemergence, 62 g ai/ha): 100 | Plant response rating, Waterhemp ([7]; Preemergence, 125 g ai/ha): 100 | Plant response rating, Wheat ([8]; Postemergence, 16 g ai/ha): 0 | Plant response rating, Wheat ([8]; Postemergence, 31 g ai/ha): 0 | Plant response rating, Wheat ([8]; Postemergence, 62 g ai/ha): 0 | Plant response rating, Wheat ([8]; Postemergence, 125 g ai/ha): 0 | Plant response rating, Wheat ([8]; Preemergence, 31 g ai/ha): 60 | Plant response rating, Wheat ([8]; Preemergence, 61 g ai/ha): 0 | Plant response rating, Wheat ([8]; Preemergence, 62 g ai/ha): 60 | Plant response rating, Wheat ([8]; Preemergence, 125 g ai/ha): 70 | Plant response rating, Barnyardgrass ([9]; 31 g ai/ha): 0 | Plant response rating, Barnyardgrass ([9]; 62 g ai/ha): 0 | Plant response rating, Barnyardgrass ([9]; 125 g ai/ha): 0 | Plant response rating, Barnyardgrass ([9]; 250 g ai/ha): 20 | Plant response rating, Ducksalad ([10]; 31 g ai/ha): 0 | Plant response rating, Ducksalad ([10]; 62 g ai/ha): 30 | Plant response rating, Ducksalad ([10]; 125 g ai/ha): 70 | Plant response rating, Ducksalad ([10]; 250 g ai/ha): 85 | Plant response rating, Rice, Transplanted ([11]; 31 g ai/ha): 0 | Plant response rating, Rice, Water Seeded ([11]; 31 g ai/ha): 0 | Plant response rating, Rice, Transplanted ([11]; 62 g ai/ha): 0 | Plant response rating, Rice, Water Seeded ([11]; 62 g ai/ha): 0 | Plant response rating, Rice, Transplanted ([11]; 125 g ai/ha): 0 | Plant response rating, Rice, Water Seeded ([11]; 125 g ai/ha): 0 | Plant response rating, Rice, Transplanted ([11]; 250 g ai/ha): 0 | Plant response rating, Rice, Water Seeded ([11]; 250 g ai/ha): 0 | Plant response rating, Sedge, Umbrella ([12]; 31 g ai/ha): 0 | Plant response rating, Sedge, Umbrella ([12]; 62 g ai/ha): 0 | Plant response rating, Sedge, Umbrella ([12]; 125 g ai/ha): 50 | Plant response rating, Sedge, Umbrella ([12]; 250 g ai/ha): 70
